Laboratory results as given in ChEMBL document CHEMBL1201862, “PubChem BioAssay data set” (2004).
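All cell lines were grown in 96-well plates and treated with compound for 48 hours. Abbreviation: GI50, concentration required for 50% inhibition of growth.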 Calls of active or inactive are those of the source. No stated cut-off is given here; in the data, active = GI50 up to about 1.1 µM and inactive = higher.

Columns and labels:
Experiment in all cases: NCI-60 cell line screen, 48 h
[1] = test system: 786-0
[2] = test system: A498
[3] = test system: ACHN
[4] = test system: HCT-116
[5] = test system: IGROV-1
[6] = test system: KM12
[7] = test system: MDA-MB-231
[8] = test system: MDA-N
[9] = test system: NCI-H522
[10] = test system: OVCAR-3
[11] = test system: OVCAR-4
[12] = test system: PC-3
[13] = test system: RPMI-8226
[14] = test system: SK-MEL-28
[15] = test system: SK-OV-3
[16] = test system: SN12C
[17] = test system: SNB-19
[18] = test system: TK-10
[19] = test system: U-251
[20] = test system: SNB-75

SMILES	GI50 [1]	GI50 [2]	GI50 [3]	GI50 [4]	GI50 [5]	GI50 [6]	GI50 [7]	GI50 [8]	GI50 [9]	GI50 [10]	GI50 [11]	GI50 [12]	GI50 [13]	GI50 [14]	GI50 [15]	GI50 [16]	GI50 [17]	GI50 [18]	GI50 [19]	GI50 [20]
CC(=O)N[C@@H](Cc1ccc(O)cn1)C(=O)NC1CCCCC1	> 100 µM (inactive)	> 100 µM (inactive)	> 100 µM (inactive)	> 100 µM (inactive)	> 100 µM (inactive)	> 100 µM (inactive)	> 100 µM (inactive)	> 100 µM (inactive)	30.3 µM (inactive)	> 100 µM (inactive)	> 100 µM (inactive)	> 100 µM (inactive)	> 100 µM (inactive)	> 100 µM (inactive)	> 100 µM (inactive)	> 100 µM (inactive)	> 100 µM (inactive)	> 100 µM (inactive)	> 100 µM (inactive)	–
O=C1CCCc2cc3c(cc21)CC1(Cc2ccccc2C1)C3	6.28 µM (inactive)	9.12 µM (inactive)	4.55 µM (inactive)	3.9 µM (inactive)	7.43 µM (inactive)	2.5 µM (inactive)	8.18 µM (inactive)	1.42 µM (inactive)	3.94 µM (inactive)	2.56 µM (inactive)	6.31 µM (inactive)	> 100 µM (inactive)	4.35 µM (inactive)	–	5.11 µM (inactive)	4.52 µM (inactive)	–	7.16 µM (inactive)	5.38 µM (inactive)	0.106 µM (active)
OC(CCN1CCN(CCOC(c2ccccc2)c2ccccc2)CC1)c1ccccc1 (stereo not given)	18 µM (inactive)	2.4 µM (inactive)	27 µM (inactive)	17.5 µM (inactive)	23.1 µM (inactive)	20.9 µM (inactive)	15.9 µM (inactive)	19.3 µM (inactive)	17.4 µM (inactive)	25.6 µM (inactive)	30.1 µM (inactive)	21.5 µM (inactive)	–	17.9 µM (inactive)	35.8 µM (inactive)	29.1 µM (inactive)	32.4 µM (inactive)	22.3 µM (inactive)	16.3 µM (inactive)	40.9 µM (inactive)
NCCCCC(NC(=O)C(N)Cc1ccc(O)cn1)C(=O)O (stereo not given)	> 100 µM (inactive)	> 100 µM (inactive)	> 100 µM (inactive)	> 100 µM (inactive)	> 100 µM (inactive)	> 100 µM (inactive)	> 100 µM (inactive)	> 100 µM (inactive)	> 100 µM (inactive)	> 100 µM (inactive)	> 100 µM (inactive)	> 100 µM (inactive)	> 100 µM (inactive)	> 100 µM (inactive)	–	> 100 µM (inactive)	> 100 µM (inactive)	> 100 µM (inactive)	> 100 µM (inactive)	–
COC(=O)[C@H](Cc1ccccc1)NC(=O)N(CCC#N)CCCCN(CCC#N)C(=O)N[C@@H](Cc1ccccc1)C(=O)OC	> 100 µM (inactive)	> 100 µM (inactive)	> 100 µM (inactive)	> 100 µM (inactive)	–	> 100 µM (inactive)	> 100 µM (inactive)	> 100 µM (inactive)	> 100 µM (inactive)	> 100 µM (inactive)	> 100 µM (inactive)	> 100 µM (inactive)	> 100 µM (inactive)	> 100 µM (inactive)	> 100 µM (inactive)	> 100 µM (inactive)	> 100 µM (inactive)	> 100 µM (inactive)	> 100 µM (inactive)	> 27.2 µM (inactive)
c1cc2c(c(NC3=NCCO3)c1)CCC2	> 100 µM (inactive)	> 100 µM (inactive)	> 100 µM (inactive)	> 100 µM (inactive)	> 100 µM (inactive)	> 100 µM (inactive)	> 100 µM (inactive)	84.5 µM (inactive)	> 100 µM (inactive)	> 100 µM (inactive)	> 100 µM (inactive)	67 µM (inactive)	> 100 µM (inactive)	> 100 µM (inactive)	> 100 µM (inactive)	> 100 µM (inactive)	> 100 µM (inactive)	> 100 µM (inactive)	> 100 µM (inactive)	–
CC(=O)Nc1cc(Nc2cc(O)nc(O)n2)ccc1C	> 100 µM (inactive)	> 100 µM (inactive)	> 100 µM (inactive)	> 100 µM (inactive)	> 100 µM (inactive)	> 100 µM (inactive)	> 100 µM (inactive)	> 100 µM (inactive)	–	> 100 µM (inactive)	> 100 µM (inactive)	> 100 µM (inactive)	> 100 µM (inactive)	> 100 µM (inactive)	–	> 100 µM (inactive)	> 100 µM (inactive)	> 100 µM (inactive)	> 100 µM (inactive)	> 100 µM (inactive)
